Where two headings read alike, the source gives them in different places.
Assays:
[1] = system: OE33 oesophageal cancer cells; assay: MTT test, overall cell growth, OE33; format: cell-based, human
Method: (§1) MTT tests were performed in order to rapidly, i.e., within 5 days, measure the effect of the present compounds on the overall cell growth. The test measured the number of metabolically active living cells that were able to transform the yellow product 3-(4,5-dimethylthiazol-2-yl)-2,5-diphenyl tetrazolium bromide (herein referred as MTT) into the blue product formazan dye by mitochondrial reduction. The amount of formazan obtained at the end of the experiment, measured by means of a spectrophotometer, is directly proportional to the number of living cells. Optical density determination thus enabled a quantitative measurement of the effect of the investigated compounds as compared to the control condition (untreated cells) and/or to other reference compounds.
(§2) Five human cancer cell lines set forth in Table 3 were used in the MTT tests. These cancer cell lines cover two histological cancer types including glioma (Hs683, T98G, U373), and oesophageal (OE21, OE33) cancers. The U373 cell line is apoptosis-resistant but autophagy-sensitive.
(§3) To perform the assay, cells were allowed to grow in 96-well micro-wells with a flat bottom with an amount of 100 μl of cell suspension per well with 5,000 to 8,000 cells/well depending on the cell type used. Each cell line was seeded in its appropriate culture medium.
(§4) The detailed experimental procedure was as follows: after a 24-hour period of incubation at 37° C., the culture medium was replaced by 100 μl of fresh medium in which the tested compound was previously dissolved, at the following molar concentrations: 1×10^−8 M, 5×10^−8 M, 1×10^−7 M, 5×10^−7 M, 1×10^−6 M, 5×10^−6 M, 1×10^−5 M, 5×10^−5 M and 1×10^−4 M. Each experiment was performed in sestuplicate (6 times).
(§5) After 72 hours of incubation at 37° C. with (experimental conditions) or without (control condition) the compound to be tested, the medium was replaced by 100 μl MTT dissolved in RPMI (1640 without phenol red) at a concentration of 0.5 or 1 mg/ml. The micro-wells were subsequently incubated during 3 hours and a half at 37° C. and centrifuged at 1300 rpm during 10 minutes. MTT was removed and formazan crystals formed were dissolved in […]. The micro-wells were shaken for 5 minutes and read on a spectrophotometer at wavelengths of 570 nm (maximal formazan absorbance).
(§6) For each experimental condition, the mean optical density was calculated, allowing the determination of the percentage of remaining living cells in comparison to the control.
(§7) The origin of all the cell lines we used, along with their biological characteristics, and the validation procedures of the MTT colorimetric assay as employed here are fully detailed in Van Quaquebeke et al., 2005, J Med Chem 48:849-856; Ingrassia et al., 2009, J Med Chem 52:1100-1114; Mathieu et al., 2009, J Cell Mol Med, Feb. 20, 2009.

T98G glioma cells = assay: MTT test, overall cell growth, T98G; format: cell-based, human; conditions: 72 hours of incubation
Method: as §1, §2, §3, §4, §5, §6, §7

[2] = system: human cancer cell lines (U373, T98G, Hs683, OE21, OE33); assay: MTT test, mean over the cancer cell lines; format: cell-based; conditions: mean over the cancer cell lines, MTT test, read-out: IC50 Mean ± SEM
Method: as §1, §2, §3, §4, §5, §6, §7

U373 cells = assay: Cellular imaging (videomicroscopy) of cultured U373 cells: antiproliferative class and global growth ratio; format: cell-based, human; set-up: key to Anti proliferative class / anti-proliferative class-GGR: class I: actually cytostatic for 3 days (<10% of cell death at the 3rd day); class II: cyctostatic but becomes cytotoxic with <10% cell death on the 2nd day, and >20% of cell death on the 3rd day; class III: cytostatic but rapidly becomes cytotoxic with <10% cell death on the 1st day, >20% of cell death on the 2nd day and >50% of cell death on the 3rd day; class IV: cytotoxic (>50% of cell death on the first day); conditions: for global growth ratio (GGR): GG treated cells/GG control cells, 72 h after drug addition, drug at its IC50 (MTT-test determined); for Anti proliferative class: cellular imaging of cultured U373 cells over three consecutive days
Text: The effects of the di- and tri-substituted beta-carboline derivatives as described herein can also be determined on cell proliferation, migration and morphology by means of a cellular imaging approach (Debeir et al., Cytometry 60:29-40, 2004; Debeir et al., IEEE Trans Med Imaging 24:697-711, 2005) either in, e.g., the human U373-MG glioma cell line, which is apoptosis-resistant but autophagy-sensitive (Lefranc F et al., Neurosurgery 2008) or in, e.g., the human A549 non-small-cell-lung cancer cell line, which is apoptosis-resistant and autophagy-resistant (Mijatovic T et al., Neoplasia 2006, May; 8(5):402-12).
[…] The experiments are conducted in quadruplicates.
The behaviour of the cells, in terms of morphology, growth and death are thus investigated. The effect on the overall growth is measured by counting the number of cells on the first (0 h) and the last image (72 h) of each film. The global growth ratio (GGR) is then deduced by dividing the number of cells on the last image by the number of cells on the first image. The ratio GGRtreated cells/GGRcontrol cells is further calculated thereby providing a value that describes the effect of compounds of the present invention on the overall cell growth.
The methodology is fully described and validated in Debeir et al., 2008, Exp Cell Res 314:2985-2998 and Mathieu et al., 2009, J Cell Mol Med, Feb. 20, 2009.

U373 glioma cells = assay: MTT test, overall cell growth, U373; format: cell-based, human; conditions: 72 hours of incubation
Method: as §1, §2, §3, §4, §5, §6, §7

Hs683 glioma cells = assay: MTT test, overall cell growth, Hs683; format: cell-based, human
Method: as §1, §2, §3, §4, §5, §6, §7

[3] = system: OE21 oesophageal cancer cells; assay: MTT test, overall cell growth, OE21; format: cell-based, human
Method: as §1, §2, §3, §4, §5, §6, §7

[4] = Homo sapiens, OE33, 72 hours of incubation
[5] = Homo sapiens, Hs 683, 72 hours of incubation
[6] = Homo sapiens, OE21, 72 hours of incubation

SMILES	IC50 [1, 4]	IC50 (T98G glioma cells; Homo sapiens, T98G)	IC50 ([2]; Homo sapiens)	global growth ratio (GGR) (U373 cells)	Anti proliferative class (U373 cells)	IC50 (U373 glioma cells; Homo sapiens, U373 MG)	IC50 (Hs683 glioma cells; [5])	IC50 [3, 6]	IC50 ([1]; 72 hours of incubation)	IC50 (T98G glioma cells)	IC50 [2]	IC50 (U373 glioma cells)	IC50 (Hs683 glioma cells; 72 hours of incubation)	IC50 ([3]; 72 hours of incubation)
Cc1c2c(cc[n+]1Cc1ccc(F)cc1)c1ccc(OCC3CCCCC3)cc1n2CC1CCCCC1.[Br-] [CV30, 1-methyl-2-(4-fluorobenzyl)-7-cyclohexylmethyloxy-9-cyclohexylmethyl-β-carbolin-2-ium bromide]	1 ± 0.1 µM	2 ± 0.6 µM	1.6 ± 0.4 µM	0.8	I (class I: actually cytostatic for 3 days (<10% of cell death at the 3rd day))	0.04 ± 0.01 µM	3.1 ± 0.3 µM	1.4 ± 0.2 µM						
CCCn1c2cc(OCc3ccccc3)ccc2c2ccnc(C)c21 [CV33, 1-methyl-7-benzyloxy-9-propyl-β-carboline]	9 ± 1 µM	34 ± 1 µM	21 ± 4 µM	0.3	III	26 ± 1 µM	13 ± 1 µM	23 ± 2 µM						
CCCn1c2cc(OCc3ccccc3)ccc2c2cc[n+](Cc3ccccc3)c(C)c21.[Br-] [CV34, 1-methyl-2-benzyl-7-benzyloxy-9-propyl-β-carbolin-2-ium bromide]	0.3 ± 0.05 µM	1.7 ± 0.5 µM	1.1 ± 0.4 µM	0.3	III	0.41 ± 0.03 µM	2.6 ± 0.2 µM	0.57 ± 0.08 µM						
CCCn1c2cc(OCc3ccccc3)ccc2c2cc[n+](Cc3ccccc3F)c(C)c21.[Br-] [CV35, 1-methyl-2-(2-fluorobenzyl)-7-benzyloxy-9-propyl-β-carbolin-2-ium bromide]	0.25 ± 0.02 µM	1.8 ± 0.3 µM	0.7 ± 0.3 µM	0.4	I (class I: actually cytostatic for 3 days (<10% of cell death at the 3rd day))	0.39 ± 0.01 µM	0.45 ± 0.02 µM	0.42 ± 0.02 µM						
CCCn1c2cc(OCc3ccccc3)ccc2c2cc[n+](Cc3ccc(F)cc3)c(C)c21.[Br-] [CV36, 1-methyl-2-(4-fluorobenzyl)-7-benzyloxy-9-propyl-β-carbolin-2-ium bromide]	1 ± 0.1 µM	5.7 ± 0.2 µM	2.5 ± 0.9 µM	0.1	IV (class IV: cytotoxic (>50% of cell death on the first day))	0.88 ± 0.06 µM	3.1 ± 0.6 µM	1.9 ± 0.3 µM						
Cc1nccc2c1[nH]c1cc(OCc3ccccc3)ccc12 [JR79, 1-methyl-7-benzyloxy-β-carboline]	4.1 ± 0.6 µM	17 ± 3 µM	14 ± 3 µM	0.2	III	9.3 ± 0.2 µM	17 ± 2 µM	21 ± 1 µM						
Cc1c2[nH]c3cc(OCc4ccccc4)ccc3c2cc[n+]1Cc1ccccc1 [JR88]				0.2	II				5.5 ± 0.3 µM	5.6 ± 0.2 µM	5 ± 1 µM	3.9 ± 0.2 µM	3.6 ± 0.1 µM	6 ± 0.6 µM
Cc1nccc2c1[nH]c1cc(OCCCC(F)(F)F)ccc12 [JR110]				0.2	IV (class IV: cytotoxic (>50% of cell death on the first day))				> 100 µM	86 ± 11 µM	> 97 µM	> 100 µM	> 100 µM	> 100 µM
Cc1nccc2c1[nH]c1cc(OC(=O)c3ccccc3)ccc12 [JR140]				0.2	III				31 ± 4 µM	42 ± 3 µM	37 ± 5 µM	27 ± 2 µM	53 ± 3 µM	30 ± 4 µM
Cc1nccc2c1[nH]c1cc(OCc3cccc4ccccc34)ccc12 [JR147]				0.2	IV (class IV: cytotoxic (>50% of cell death on the first day))				8.2 ± 0.4 µM	12 ± 2 µM	16 ± 5 µM	7.4 ± 0.4 µM	19 ± 2 µM	33 ± 8 µM
Cc1nccc2c1[nH]c1cc(OCCc3ccccc3)ccc12 [JR155]				0.2	IV (class IV: cytotoxic (>50% of cell death on the first day))				7.9 ± 0.3 µM	21 ± 1 µM	15 ± 3 µM	9.1 ± 0.6 µM	21 ± 3 µM	14 ± 1 µM
Cc1nccc2c1[nH]c1cc(OCC3CCCCC3)ccc12 [JR167]				0.1	IV (class IV: cytotoxic (>50% of cell death on the first day))				8.1 ± 0.2 µM	7.2 ± 0.2 µM	11 ± 3 µM	7.48 ± 0.07 µM	22 ± 2 µM	8.3 ± 0.2 µM
Cc1nccc2c1[nH]c1cc(OCc3ccccn3)ccc12 [JR169]				0.4	I (class I: actually cytostatic for 3 days (<10% of cell death at the 3rd day))				23 ± 3 µM	20 ± 2 µM	20 ± 1 µM	21.3 ± 0.8 µM	20 ± 1 µM	16 ± 3 µM
